SMILES strings stand for the structures.

One assay addresses T1, Lp-PLA2 (Homo sapiens, UniProt Q13093).
T1 construct: aliquoted and thawed 40 μL of pooled human plasma was previously added; from tissue; host or cells: pooled human plasma
T1 sequence (Q13093 22-441): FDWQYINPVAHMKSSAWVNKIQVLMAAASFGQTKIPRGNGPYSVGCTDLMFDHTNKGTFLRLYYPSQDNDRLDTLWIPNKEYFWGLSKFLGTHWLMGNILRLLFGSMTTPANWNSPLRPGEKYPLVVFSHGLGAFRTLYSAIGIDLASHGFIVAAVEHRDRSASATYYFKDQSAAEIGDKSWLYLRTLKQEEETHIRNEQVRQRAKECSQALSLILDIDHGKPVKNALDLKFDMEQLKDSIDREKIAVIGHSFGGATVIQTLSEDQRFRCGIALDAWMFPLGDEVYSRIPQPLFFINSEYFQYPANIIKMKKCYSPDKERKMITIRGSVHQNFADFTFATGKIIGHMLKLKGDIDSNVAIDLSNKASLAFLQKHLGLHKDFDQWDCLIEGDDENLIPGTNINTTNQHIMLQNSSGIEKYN
The assay can be described thus: Lipoprotein-associated phospholipase A2 (Lp-PLA2) human plasma assay (Thio-PAF assay). It is filed as biochemical. The settings on record: Comparison of activity data (I); pooled human plasma, 2-thio-PAF substrate, 30-min pre-incubation.
Consider `O=c1nc(OCc2cc(F)c(F)c(F)c2)cc2n1C[C@@H]1COCCN21` [Example 123 in WO2016011930A1, reference compound], for which the IC50 (commonly the concentration at which inhibition is half-maximal) came out at 75.3 nM.

The same assay, now with this note: Lp-PLA2 human plasma assay (Thio-PAF), pooled human plasma, 30-min pre-incubation at room temperature.
With `N#Cc1c(OCc2cc(F)c(Oc3ccnc(C(F)(F)F)c3)c(F)c2)nc(=O)n2c1N1C[C@@H]3C[C@]1(CO3)C2` [Example 102, (3S,11aR)-7-((3,5-difluoro-4-((2-(trifluoromethyl)pyridin-4-yl)oxy)benzyl)oxy)-6-cyano-3,4-dihydro-1H,9H,11H-3,11a-methanopyrimido[6′,1′:2,3] imidazo[5,1-c][1,4]oxazin-9-one], the IC50 turned out to be 7.6 nM.

`N#Cc1cc(COc2cc3n(c(=O)n2)CC24CC(CN32)C4)ccc1F` [Example 103]: the IC50 is 6.2 nM. Same read-out and setting: next, `CCc1c(OCc2cc(F)c(Oc3ccnc(C(F)(F)F)c3)c(F)c2)nc(=O)n2c1N1C[C@@H]3C[C@]1(CO3)C2` [Example 104, (3S,11aR)-7-((3,5-difluoro-4-((2-(trifluoromethyl)pyridin-4-yl)oxy)benzyl)oxy)-6-ethyl-3,4-dihydro-1H,9H,11H-3,11a-methanopyrimido[6′,1′:2,3] imidazo[5,1-c][1,4]oxazin-9-one]: 8.6 nM; `O=c1nc(OCc2ccc(Oc3ccnc(C(F)(F)F)c3)cc2F)cc2n1CC13CC(CN21)C3` [Example 105, 3-((2-fluoro-4-((2-(trifluoromethyl)pyridin-4-yl)oxy)benzyl)oxy)-7,8-dihydro-1H,6H,9H-7,8a-methanopyrrolo[1′,2′:3,4] imidazo[1,2-c]pyrimidin-1-one]: 10.8 nM; `COc1c(OCc2cc(F)c(Oc3ccnc(C(F)(F)F)c3)c(F)c2)nc(=O)n2c1N1C[C@@H]3C[C@]1(CO3)C2` [Example 106, (3S,11aR)-7-((3,5-difluoro-4-((2-(trifluoromethyl)pyridin-4-yl)oxy)benzyl)oxy)-6-methoxy-3,4-dihydro-1H,9H,11H-3,11a-methanopyrimido[6′,1′:2,3] imidazo[5,1-c][1,4]oxazin-9-one]: 1 nM. `CC(C)c1c(OCc2cc(F)c(Oc3ccnc(C(F)(F)F)c3)c(F)c2)nc(=O)n2c1N1C[C@@H]3C[C@]1(CO3)C2` [Example 107, (3S,11aR)-7-((3,5-difluoro-4-((2-(trifluoromethyl)pyridin-4-yl)oxy)benzyl)oxy)-6-isopropyl-3,4-dihydro-1H,9H,11H-3,11a-methanopyrimido[6′,1′:2,3] imidazo[5,1-c][1,4]oxazin-9-one]: the IC50 is 9.5 nM. For the compound `Cc1c(OCc2ccc(Oc3ccnc(C(F)(F)F)c3)cc2)nc(=O)n2c1N1C[C@@H]3C[C@]1(CO3)C2` [Example 108, (3S,11aR)-7-((4-((2-(trifluoromethyl)pyridin-4-yl)oxy)benzyl)oxy)-6-methyl-3,4-dihydro-1H,9H,11H-3,11a-methanopyrimido[6′,1′:2,3] imidazo[5,1-c][1,4]oxazin-9-one], the IC50 was 5 nM. Same read-out and setting: next, `O=c1nc(OCc2ccc(Oc3ccnc(C(F)(F)F)c3)cc2)cc2n1CC13CC(CN21)C3` [Example 109, 3-((4-((2-(trifluoromethyl)pyridin-4-yl)oxy)benzyl)oxy)-7,8-dihydro-1H,6H,9H-7,8a-methanopyrrolo[1′,2′:3,4] imidazo[1,2-c]pyrimidin-1-one]: 14 nM.

Turning to `N#Cc1cc(COc2cc3n(c(=O)n2)C[C@@]24CO[C@@H](CN32)C4)ccc1Oc1ccnc(C(F)(F)F)c1` [Example 110, 5-((((3R,11aS)-9-oxo-3,4-dihydro-1H,9H,11H-3,11a-methanopyrimido[6′,1′:2,3]imidazo[5,1-c][1,4]oxazin-7-yl)oxy)methyl)-2-((2-(trifluoromethyl)pyridin-4-yl)oxy)benzonitrile], the IC50 amounted to 5.3 nM.

As for `O=c1nc(OCCc2ccc(Oc3ccnc(C(F)(F)F)c3)cc2)cc2n1CC13CC(CN21)C3` [Example 111, 3-(4-((2-(trifluoromethyl)pyridin-4-yl)oxy)phenethoxy)-7,8-dihydro-1H,6H,9H-7,8a-methanopyrrolo[1′,2′:3,4] imidazo[1,2-c]pyrimidin-1-one], the IC50 was 11.4 nM. As for `O=c1nc(OCc2cc(F)c(Oc3ccnc(C(F)(F)F)c3)c(F)c2)cc2n1CC13CCC(COC1)N23` (centres unmarked) [Example 112, 7-((3,5-difluoro-4-((2-(trifluoromethyl)pyridin-4-yl)oxy)benzyl)oxy)-3,4-dihydro-1H,9H,11H-4,11a-ethanopyrimido[6′,1′:2,3] imidazo[5,1-c][1,4]oxazin-9-one], the IC50 worked out at 5.1 nM. As to `O=c1nc(OCc2ccc(Oc3ccnc(C(F)(F)F)c3)c(F)c2)cc2n1CC13CC(CN21)C3` [Example 113, 3-((3-fluoro-4-((2-(trifluoromethyl)pyridin-4-yl)oxy)benzyl)oxy)-7,8-dihydro-1H,6H,9H-7,8a-methanopyrrolo[1′,2′:3,4] imidazo[1,2-c]pyrimidin-1-one], the IC50 was found to be 5.7 nM. `COc1c(OCc2cc(F)c(F)c(F)c2)nc(=O)n2c1N1C[C@@H]3C[C@]1(CO3)C2` [Example 114, (3S,11aR)-7-((3,4,5-trifluorobenzyl)oxy)-6-methoxy-3,4-dihydro-1H,9H,11H-3,11a-methanopyrimido[6′,1′:2,3] imidazo[5,1-c][1,4]oxazin-9-one]: the IC50 was 5.7 nM. In the case of `COc1c(OCc2ccc(F)c(F)c2)nc(=O)n2c1N1C[C@@H]3C[C@]1(CO3)C2` [Example 115, (3S,11aR)-7-((3,4-difluorobenzyl)oxy)-6-methoxy-3,4-dihydro-1H,9H,11H-3,11a-methanopyrimido[6′,1′:2,3] imidazo[5,1-c][1,4]oxazin-9-one], the IC50 was found to be 5.2 nM. On to `O=c1nc(OCc2ccc(Oc3ccc(C(F)(F)F)nc3)c(F)c2)cc2n1CC13CC(CN21)C3` [Example 117, 3-((3-fluoro-4-((6-(trifluoromethyl)pyridin-3-yl)oxy)benzyl)oxy)-7,8-dihydro-1H,6H,9H-7,8a-methanopyrrolo[1′,2′:3,4] imidazo[1,2-c]pyrimidin-1-one], for which the IC50 was 9.1 nM.

Take `O=c1nc(OCc2ccc(Oc3ccnc(C(F)(F)F)c3)c(F)c2)cc2n1CC13CCC(CC1)N23` [Example 118, 3-((3-fluoro-4-((2-(trifluoromethyl)pyridin-4-yl)oxy)benzyl)oxy)-7,8-dihydro-1H,6H,9H-6,8a-ethanopyrrolo[1′,2′:3,4] imidazo[1,2-c]pyrimidin-1-one]: the IC50 amounted to 6 nM. As for `Cc1cc(Oc2ccc(COc3cc4n(c(=O)n3)CC35CC(CN43)C5)cc2F)ccn1` [Example 119, 3-((3-fluoro-4-((2-methyl-pyridin-4-yl)oxy)benzyl)oxy)-7,8-dihydro-1H,6H,9H-7,8a-methanopyrrolo[1′,2′:3,4] imidazo[1,2-c]pyrimidin-1-one], the IC50 is 8.2 nM. For the compound `Cc1cc(Oc2ccc(COc3cc4n(c(=O)n3)CC35CCC(CC3)N45)cc2F)ccn1` [Example 120, 3-((3-fluoro-4-((2-methyl-pyridin-4-yl)oxy)benzyl)oxy)-7,8-dihydro-1H,6H,9H-6,8a-ethanopyrrolo[1′,2′:3,4] imidazo[1,2-c]pyrimidin-1-one], the IC50 was 8.7 nM. Regarding `O=c1nc(OCc2ccc(Oc3ccc(C(F)(F)F)nc3)c(F)c2)cc2n1CC13CCC(CC1)N23` [Example 121, 3-((3-fluoro-4-((6-(trifluoromethyl)pyridin-3-yl)oxy)benzyl)oxy)-7,8-dihydro-1H,6H,9H-6,8a-ethanopyrrolo[1′,2′:3,4] imidazo[1,2-c]pyrimidin-1-one], the IC50 is 8.6 nM. As for `O=c1nc(OCc2ccc(Oc3cnc(C(F)(F)F)nc3)c(F)c2)cc2n1CC13CC(CN21)C3` [Example 122, 3-((3-fluoro-4-((2-(trifluoromethyl)pyrimidin-5-yl)oxy)benzyl)oxy)-7,8-dihydro-1H,6H,9H-7,8a-methanopyrrolo[1′,2′:3,4] imidazo[1,2-c]pyrimidin-1-one], the IC50 was 9.4 nM.

In the case of `O=c1nc(OCc2cc(F)c(Oc3ccnc(C(F)(F)F)c3)c(F)c2)cc2n1C[C@]13CC[C@H](CN21)C3` [Example 123], the IC50 was 4.4 nM. For `O=c1nc(OCc2ccc(Oc3cccc(C(F)(F)F)c3)c(F)c2)cc2n1CC13CC(CN21)C3` [Example 124, 3-((3-fluoro-4-(3-(trifluoromethyl)phenoxy)benzyl)oxy)-7,8-dihydro-1H,6H,9H-7,8a-methanopyrrolo[1′,2′:3,4] imidazo[1,2-c]pyrimidin-1-one], the IC50 turned out to be 6.1 nM. With `O=c1nc(OCc2ccc(Oc3ccc(Cl)c(C(F)(F)F)c3)c(F)c2)cc2n1CC13CC(CN21)C3` [Example 125, 3-((3-fluoro-4-(4-chloro-3-(trifluoromethyl)phenoxy)benzyl)oxy)-7,8-dihydro-1H,6H,9H-7,8a-methanopyrrolo[1′,2′:3,4] imidazo[1,2-c]pyrimidin-1-one], the IC50 stood at 3 nM. As for `O=c1nc(OCc2ccc(Oc3cccc(C(F)(F)F)c3)c(F)c2)cc2n1CC13CCC(CC1)N23` [Example 126, 3-((3-fluoro-4-(3-(trifluoromethyl)phenoxy)benzyl)oxy)-7,8-dihydro-1H,6H,9H-6,8a-ethanopyrrolo[1′,2′:3,4] imidazo[1,2-c]pyrimidin-1-one], the IC50 is 5 nM.

Regarding `O=c1nc(OCc2ccc(Oc3ccc(Cl)c(C(F)(F)F)c3)c(F)c2)cc2n1CC13CCC(CC1)N23` [Example 127, 3-((3-fluoro-4-(4-chloro-3-(trifluoromethyl)phenoxy)benzyl)oxy)-7,8-dihydro-1H,6H,9H-6,8a-ethanopyrrolo[1′,2′:3,4] imidazo[1,2-c]pyrimidin-1-one], the concentration for half-maximal inhibition (IC50) is 2.6 nM.

The values above are taken from US20230044787A1, “TRICYCLE DIHYDROIMIDAZOPYRIMIDONE DERIVATIVE, PREPARATION METHOD THEREOF, PHARMACEUTICAL COMPOSITION AND USE THEREOF” (priority 2019, published 2023).
